Assay results from patent publication US12539284B2, “Aminoxy acid-based anti-cancer stem cell compounds and methods thereof” (Westlake University, priority 2019, dated 2026).
Entries after “also recorded” stand apart in the source; their conditions may differ. Where two headings read alike, the source gives them in different places.

Experiments:
[1] = system: Huh 7 cancer stem cells (CD133+); assay: Cell viability (CellTiter-Glo) of sorted Huh 7 CD133+ cells; format: cell-based; conditions: 48 h, different doses
Method: (§1) Huh-7 cells were stained with PE-conjugated CD133 antibody (HCC cancer stem cell marker) according to the manufacturer's instructions. Then CD133^+ cells (Huh 7 cancer stem cells) and CD133− cells were sorted by flow cytometry and seeded into 96-well plate with fresh DMEM medium. After 24 h, medium was changed to fresh medium with compound sff-2-112 (“Example 1”) or sff-2-124 (“Example 3”) at different doses. After 48 h, cell viability was analyzed by CellTiter-Glo luminescent agent.

[2] = system: HEY A8 cells; assay: Population of CD133+ cells by flow cytometry (PE-conjugated CD133 antibody); format: cell-based, human; conditions: 15 μM; for population of CD133+ cells after treatment: control 21.8%
Method: CD133 has been reported to be a marker of ovarian CSCs. After cells treated with synthetic molecule, the population of CD133^+ cells were measured. HEY A8 cells were treated with taxol (100 nM), compound sff-2-112 (“Example 1”) or sff-2-132 (“Example 4”) at the concentration of 15 μM. Medium containing 0.1% DMSO was used as a negative control.
A suspension of HEY A8 cells at the concentration of 2.5×10^4 cells/mL in DMEM medium were seeded into 60-mm cell culture dishes. Cells were incubated at 37° C. in a humidified atmosphere containing 5% CO2 for 24 h, followed by the addition of 4 mL fresh medium or medium containing Paclitaxel (100 nM), sff-2-112 (15 μM) or compound sff-2-132 (15 μM). Medium containing 0.1% DMSO was used as a negative control. After 3 days, the medium was removed and cells were washed with cold PBS twice, and then stained with PE-conjugated CD133 antibody according to the manufacture's instruction. The fluorescence was analyzed by flow cytometry.

[3] = system: Huh 7 CD133- cells; assay: Cell viability (CellTiter-Glo) of sorted Huh 7 CD133- cells; format: cell-based; conditions: 48 h, different doses
Method: as §1

[4] = system: HEY A8 CSCs (HEY A8 SP); assay: Toxicity / cell viability (CellTiter-Glo) on HEY A8 spheres (CSCs); format: cell-based, human; conditions: for rank of toxicity among the 14 molecules on HEY A8 CSCs: 5 μM; for rank of toxicity among the 14 molecules on HEY A8 CSCs / cell viability of HEY A8 CSCs (toxicity): 48 h; for IC50: HEY A8 spheres, 48 h incubation, read-out: IC50 Cancer Stem Cell HeyA8 SP; for cell viability of HEY A8 CSCs (toxicity): compound 5 μM; for selectivity towards ovarian CSCs over ovarian cancer cells and normal cells: from IC50 values, FIG. 4 and Table 1
Method: Aminoxy acids were synthesized by the standard peptide coupling procedures. The CSCs are obtained by spheroids culturing under suspension condition. It is confirmed that these spheres indeed contain significant higher population of cells with CD133 antigenic phenotype, which has been reported can represent ovarian CSCs (FIG. 2). After treatment with compounds for 48 h, the cell viability of CSCs was measured by using CELLTITER-GLO® luminescent reagent. Compound sff-3-85 (“Example 2”) were used at the dose of 10 μM, all the other compounds were used at the concentration of 5 μM. All experiments were performed three times and data is presented as mean±SD.
Cell Cultures Human ovarian carcinoma cell lines HEY A8 and SKOV3 were gifts from Professor Alice Wong's group (The University of Hong Kong). Cells were grown in Dulbecco's Modified Eagle (DMEM) medium supplemented with 10% FBS and 1% penicillin/streptomycin at 37° C. in a humidified atmosphere containing […] CO2. Isolation and culture of spheres were performed in serum-free stem-cell-selective condition as described in literature Ip etl. Oncogene 2014, 5, 9133-9149. Briefly, 1-2 weeks after plating, non-adherent spherical clusters of cells could be observed and were separated from single cells by low speed centrifugation. After 8th to 10th passages, the non-adherent spherical clusters of cells appeared as distinct spheres. Using this selection condition, HEY A8 spheres (HEY A8 SP) or SKOV3 spheres (SKOV3 SP) could be enzymatically dissociated and reformed into spheres within 3 days under stem-cell-selective condition. To allow differentiation, dissociated sphere cells were plated on tissue culture plates in medium (MCDB 105:M199=1:1) supplemented with 10% FBS and 1% PS.
(§2) HEY A8 SP cells (5×10^4) were plated in triplicate in 10 mL serum-free MCDB105 medium in 100-mm Petri dish for 7 days to form spheres. Compound at the final concentration of 5 μM was added. The cells were further incubated at 37° C. for 48 h. After that cells were collected by centrifugation and the medium was removed. Then 100 μL CellTiter-Glo® Luminescent Cell Viability reagent was added into each tube, which was incubated for 10 min with shaking. After that, the reagent was transferred into 96-well plates and cell viability was measured using a microplate reader (SpectraMax 340PC 384, Molecular Devices).
as §2, with “A8 SP cells or SKOV3” for “A8”, “Then drugs” for “Compound”, “different” for “the final”, “were” for “of 5 μM was”, “μL of” for “μL”

SMILES | death of Huh 7 CD133+ cells [1] | population of CD133+ cells relative to DMSO treated group [2] | population of CD133+ cells after treatment ([2]; 3 days) | death of Huh 7 CD133- cells [3] | rank of toxicity among the 14 molecules on HEY A8 CSCs [4] | IC50 [4] | cell viability of HEY A8 CSCs (toxicity) [4] | selectivity towards ovarian CSCs over ovarian cancer cells and normal cells [4] | decrease of CD133+ population ([2]; 3 days, from 21.8%) | IC50 ([4]; Homo sapiens) | selectivity to CSCs over cancer cells ([4]; ovarian CSCs vs adherent cancer cells (and normal cells))
O=C(NO[C@H](COCc1ccccc1)C(=O)Nc1ccccc1)c1cc(C(F)(F)F)cc(C(F)(F)F)c1 [sff-2-112] | induce the death | significantly reduced the population of CD133^+ cells | 12.6% | induce the death | highest toxicity | 1500 ± 1300 nM | significantly decreased the cell viability | selectively induce the death of ovarian CSCs |  |  | 
CC(C)(C)OC(=O)[C@@H](COCc1ccccc1)ONC(=O)c1cc(C(F)(F)F)cc(C(F)(F)F)c1 [sff-2-132] |  | significantly reduced the population of CD133^+ cells | 1.9% |  | highest toxicity |  | significantly decreased the cell viability | best selectivity; also recorded: selectively induce the death of ovarian CSCs | around 10 fold | 1000 ± 900 nM | up to 60 fold
